Experimental data published in PMC10362580, “Patient-derived organoids for precision oncology: a platform to facilitate clinical decision making” (BMC Cancer, 2023).

What was measured:
[1] = system: Normal Organoid from normal adjacent tissue of breast cancer patients; assay: PDO drug sensitivity and resistance testing (CellTiter-Glo), breast normal adjacent tissue organoids; format: cell-based; conditions: Homo sapiens
Method: (§1) Patient-derived tumor organoid was dissociated to single cells after seven days in culture. Epithelial Cells (from tumor and adjacent normal tissues) in combination with patient-derived isogenic adipose-derived Mesenchymal Stem Cells: iECs: MSCs (3:1:1) were seeded at a density of 5000 cells per well in 96-well clear bottom microplates. Multicellular organoids were allowed to grow for seven days. Breast and ovarian organoids were imaged every day and fed every alternate day with aforementioned Breast organoid medium and Ovarian organoid medium respectively. […] Organoids were subsequently incubated for […]; DMSO only- vehicle control and media only- negative control was used to set the baseline. After 0, 1, 7, 14 and 21 days ATP levels were measured with the CellTiter-Glo (Promega, Wisconsin, USA). All screenings were performed in triplicates. Data were analyzed using GraphPad Prism 6. Drug dose–response curves were visualized using […] analysis [setting: log (inhibitor) versus response, least-squares (ordinary) fit; top constraint 100%]. Concentrations where 50% cell viability (IC50-value) was reached were interpolated. The area under the curve (AUC) was approximated between the lowest and highest concentrations screened in the actual assay with the trapezoid rule for numerical integration. The dose–response curves were plotted as the percentage of the cell viability against the logarithm of drug concentrations in µM and were fitted to estimate the IC50.
(§2) We investigated BC organoids in response to standard medications in order to assess their potential as in vitro disease models. Towards this, PDOs were treated with doxorubicin and paclitaxel (commonly used chemotherapeutic drugs).
(§3) Following seven days incubation, organoid cultures were manually inspected using a phase-contrast microscope to check cell health and morphology prior to the addition of drugs. CellTiter-Glo® 2.0 determines the number of viable cells in a well, based on the quantification of ATP present, an indicator of metabolically viable cells. Total cell count was measured by CellTiter-Glo® 2.0, which causes cell lysis and produces a luminescence signal proportional to the amount of ATP present. Following completion of the above quality metrics, the data was normalized or the raw intensity data was used for curve-fitting. • Data normalization: Normalization was completed using the following calculation: (Raw intensity signal- Mean of positive control/ Mean of negative control-Mean positive control)

[2] = system: patient-derived breast cancer organoids (Tumor Organoid); assay: PDO drug sensitivity and resistance testing (CellTiter-Glo), breast tumor organoids; format: cell-based, human; conditions: for IC50: Homo sapiens; for Viability of organoids (CTG assay): breast cancer organoids; for Response of breast cancer PDOs to treatment: few breast cancer PDOs
Method: as §1, §2, §3

[3] = system: iPSCs-derived cardiomyocytes; assay: Calcium transient assay (cardiotoxicity); format: cell-based, human; conditions: 1 µM; cardiomyocytes from healthy donor, breast cancer and ovarian cancer patient
Method: To initiate cardiac differentiation, 10,000 cells/cm^2 of passage 11–20 single cell suspension of iPSCs were seeded on matrigel coated plates in mTeSR™1 media and incubated overnight to obtain 95% confluent culture. Once cells reached > 95% confluence, RPMI 1648 medium (Gibco)/B-27 Supplement Minus Insulin (Gibco)/ 100 ng/ml Activin A (Gibco) + Matrigel (Corning) + […] CHIR9902 (Stem Cell Technologies) was added. CHIR9902 only for 24 h. Day 02–04: RPMI 1648 medium (Gibco)/B-27 Supplement Minus Insulin (Gibco)/ activin A (Gibco) (100 ng/ml) and BMP4 (Gibco) (10 ng/ml) and bFGF. Day 05–06: RPMI 1640 (with L-glutamine) with 2% B27 minus insulin supplement, 1 µl IWR-1 (5 µM final). Day 07–09: RPMI 1640 with L-Glutamine (Gibco) with 2% B27 with insulin supplement (Gibco). Day10: At day 10 post-differentiation, changed the medium to RPMI 1648-low glucose medium (Gibco) and maintained the cells in this medium for 3 days (until day 13). Day 13: Returned cells to RPMI/B27 medium-with insulin (Gibco). At day 14, changed the medium back to RPMI-low glucose medium (Gibco) for a second glucose deprivation cycle. Cultured the cells in this low glucose state for 3 more days. Most of the non-cardiomyocytes will die in this low-glucose culture condition. At day 17, changed the medium to 2 ml of RPMI/B27 medium with insulin. The remaining cells will be highly purified cardiomyocytes. […]

[4] = system: Normal Organoid from normal adjacent tissue of ovarian cancer patients; assay: PDO drug sensitivity and resistance testing (CellTiter-Glo), ovarian normal adjacent tissue organoids; format: cell-based; conditions: Homo sapiens
Method: as §1
(§4) We developed a protocol to culture and expand organoids from tissues collected from ovarian cancer patients. […] We performed drug sensitivity and resistance test (DSRT) using 2 FDA-approved commonly used therapeutic drugs paclitaxel and doxorubicin. Depending on the properties of the individual drugs, the concentrations ranged from 0.001 µM to 1000 µM (Fig. 6).
as §3

[5] = system: patient-derived primary ovarian cancer organoids (Tumor Organoid); assay: PDO drug sensitivity and resistance testing (CellTiter-Glo), ovarian tumor organoids; format: cell-based, human; conditions: for IC50: Homo sapiens; for Viability of organoids (CTG assay): ovarian cancer organoids
Method: as §1, §4, §3

[6] = system: iPSCs-derived hepatocytes; assay: Cytoskeleton disruption in hepatocytes (hepatotoxicity); format: cell-based, human; conditions: 0.1 ug/ml; hepatocytes from healthy donors, breast cancer and ovarian cancer patients
Method: To initiate hepatic differentiation, 10, 000 cells/cm^2 of passage 11 (P11) single cell suspension of iPSCs were seeded on matrigel coated plates in mTeSR™1 media and incubated overnight to obtain 95% confluent culture. Once cells reached > 95% confluence, RPMI media (Gibco) + 2% B27 supplement (Gibco) + 100 ng/ml Activin A (Gibco) + 3 µM CHIR99021 (Stem Cell Technologies) + 2% Matrigel (Corning) was added. Day 1 to 4: RPMI (Gibco) media + 2% B27 supplement (Gibco) + 100 ng/ml Activin A (Sigma). Day 5 to 10: RPMI (Gibco) media + 2% B27 supplement (Gibco) + 10 ng/ml bFGF (Sigma) + 20 ng/ml BMP4 (Sigma) + 0.5% DMSO (Sigma); Day 11 to 15: RPMI 1648 (Gibco) media + 2% B27 supplement (Gibco) + 20 ng/ml HGF (Sigma) + 0.5% DMSO (Sigma); Day 16 to 21: RPMI 1648 (Gibco) media + 2% B27 supplement (Gibco) + 20 ng/ml Oncostatin M (Gibco) + 100 nM Dexamethasone + 20 ng/ml HGF (Sigma) + 0.5% DMSO (Sigma). […] The presence of intracellular glycogen in hepatocytes was assessed by periodic acid–Schiff’s (PAS) staining and nuclei were counterstained with Mayer’s haematoxylin [42]. […]

[7] = system: iPSCs-derived forebrain motor neurons; assay: Neurite outgrowth assay (neurotoxicity); conditions: 1 µM; neurons from healthy donor, breast cancer and ovarian cancer patient
Method: Neurite outgrowth assay was performed to determine neurotoxicity. […] We tested neurotoxic chemotherapeutic drug on iPSC-derived neurons- control (healthy donor), breast cancer and ovarian cancer patients [46–48] using ImageXpress® Nano Automated Imaging System (Molecular Devices).

[8] = 168 h, Breast Cancer Sample 1, Normal Organoid, day 7, CTG
[9] = 168 h, Breast Cancer Sample 2, Normal Organoid, day 7, CTG
[10] = 168 h, Breast Cancer Sample 3, Normal Organoid, day 7, CTG
[11] = 336 h, Breast Cancer Sample 1, Normal Organoid, day 14, CTG
[12] = 336 h, Breast Cancer Sample 2, Normal Organoid, day 14, CTG
[13] = 336 h, Breast Cancer Sample 3, Normal Organoid, day 14, CTG
[14] = 504 h, Breast Cancer Sample 1, Normal Organoid, day 21, CTG
[15] = 504 h, Breast Cancer Sample 2, Normal Organoid, day 21, CTG
[16] = 504 h, Breast Cancer Sample 3, Normal Organoid, day 21, CTG
[17] = 168 h, Breast Cancer Sample 1, Tumor Organoid, day 7, CTG
[18] = 168 h, Breast Cancer Sample 2, Tumor Organoid, day 7, CTG
[19] = 168 h, Breast Cancer Sample 3, Tumor Organoid, day 7, CTG
[20] = 336 h, Breast Cancer Sample 1, Tumor Organoid, day 14, CTG
[21] = 336 h, Breast Cancer Sample 2, Tumor Organoid, day 14, CTG
[22] = 336 h, Breast Cancer Sample 3, Tumor Organoid, day 14, CTG
[23] = 504 h, Breast Cancer Sample 1, Tumor Organoid, day 21, CTG
[24] = 504 h, Breast Cancer Sample 2, Tumor Organoid, day 21, CTG
[25] = 504 h, Breast Cancer Sample 3, Tumor Organoid, day 21, CTG
[26] = 168 h, Ovarian Cancer Sample 1, Normal Organoid, day 7, CTG
[27] = 168 h, Ovarian Cancer Sample 2, Normal Organoid, day 7, CTG
[28] = 168 h, Ovarian Cancer Sample 3, Normal Organoid, day 7, CTG
[29] = 336 h, Ovarian Cancer Sample 1, Normal Organoid, day 14, CTG
[30] = 336 h, Ovarian Cancer Sample 2, Normal Organoid, day 14, CTG
[31] = 336 h, Ovarian Cancer Sample 3, Normal Organoid, day 14, CTG
[32] = 504 h, Ovarian Cancer Sample 1, Normal Organoid, day 21, CTG
[33] = 504 h, Ovarian Cancer Sample 2, Normal Organoid, day 21, CTG
[34] = 504 h, Ovarian Cancer Sample 3, Normal Organoid, day 21, CTG
[35] = 168 h, Ovarian Cancer Sample 1, Tumor Organoid, day 7, CTG
[36] = 168 h, Ovarian Cancer Sample 2, Tumor Organoid, day 7, CTG
[37] = 168 h, Ovarian Cancer Sample 3, Tumor Organoid, day 7, CTG
[38] = 336 h, Ovarian Cancer Sample 1, Tumor Organoid, day 14, CTG
[39] = 336 h, Ovarian Cancer Sample 2, Tumor Organoid, day 14, CTG
[40] = 336 h, Ovarian Cancer Sample 3, Tumor Organoid, day 14, CTG
[41] = 504 h, Ovarian Cancer Sample 1, Tumor Organoid, day 21, CTG
[42] = 504 h, Ovarian Cancer Sample 2, Tumor Organoid, day 21, CTG
[43] = 504 h, Ovarian Cancer Sample 3, Tumor Organoid, day 21, CTG

COc1cccc2c1C(=O)c1c(O)c3c(c(O)c1C2=O)C[C@@](O)(C(=O)CO)C[C@@H]3O[C@H]1C[C@H](N)[C@H](O)[C@H](C)O1 [Doxorubicin]
IC50 [1, 8]: 96.6 µM | IC50 [1, 9]: 859 µM | IC50 [1, 10]: 955 µM | IC50 [1, 11]: 92 µM | IC50 [1, 12]: 1010 µM | IC50 [1, 13]: 96.4 µM | IC50 [1, 14]: 0.955 µM | IC50 [1, 15]: 9.53 µM | IC50 [1, 16]: 10.2 µM | IC50 [2, 17]: 902 µM | IC50 [2, 18]: 976 µM | IC50 [2, 19]: 938 µM | IC50 [2, 20]: 117 µM | IC50 [2, 21]: 1060 µM | IC50 [2, 22]: 92.2 µM | IC50 [2, 23]: 125 µM | IC50 [2, 24]: 97.6 µM | IC50 [2, 25]: 9.55 µM | Viability of organoids (CTG assay) [2]: significantly decreased the viability of organoids | Response of breast cancer PDOs to treatment [2]: resistant | Calcium oscillation/contraction pattern sensitivity, donor comparison [3]: Ovarian cancer patient’s cardiomyocytes was found more sensitive to Doxorubicin followed by breast cancer patient and healthy donor | IC50 [4, 26]: 96.2 µM | IC50 [4, 27]: 2340 µM | IC50 [4, 28]: 102 µM | IC50 [4, 29]: 8.92 µM | IC50 [4, 30]: 2250 µM | IC50 [4, 31]: 8.89 µM | IC50 [4, 32]: 0.0119 µM | IC50 [4, 33]: 1160 µM | IC50 [4, 34]: 9.29 µM | IC50 [5, 35]: 847 µM | IC50 [5, 36]: 2450 µM | IC50 [5, 37]: 987 µM | IC50 [5, 38]: 877 µM | IC50 [5, 39]: 2210 µM | IC50 [5, 40]: 1040 µM | IC50 [5, 41]: 1.02 µM | IC50 [5, 42]: 1930 µM | IC50 [5, 43]: 98.1 µM | Viability of organoids (CTG assay) [5]: significantly decreased the viability of organoids

C/C1=C/C(=O)O[C@@H]2C[C@@H](CC[C@H](C)/C=C\C=C\CC1)O[C@@](O)([C@@H]1CSC(=O)N1)C2 [Latrunculin a]
Cytoskeleton disruption sensitivity, donor comparison [6]: Ovarian cancer patient’s hepatocytes were found more sensitive to Latrunculin followed by breast cancer patient and healthy donor

CC(=O)O[C@H]1C(=O)[C@@]2(C)[C@H]([C@H](OC(=O)c3ccccc3)[C@]3(O)C[C@H](OC(=O)[C@H](O)[C@@H](NC(=O)c4ccccc4)c4ccccc4)C(C)=C1C3(C)C)[C@]1(OC(C)=O)CO[C@@H]1C[C@@H]2O [Paclitaxel]
IC50 [1, 8]: 7.89 µM | IC50 [1, 9]: 947 µM | IC50 [1, 10]: 95.1 µM | IC50 [1, 11]: 8.53 µM | IC50 [1, 12]: 980 µM | IC50 [1, 13]: 100 µM | IC50 [1, 14]: 0.955 µM | IC50 [1, 15]: 1000 µM | IC50 [1, 16]: 10.2 µM | IC50 [2, 17]: 83.6 µM | IC50 [2, 18]: 874 µM | IC50 [2, 19]: 849 µM | IC50 [2, 20]: 96.4 µM | IC50 [2, 21]: 103 µM | IC50 [2, 22]: 975 µM | IC50 [2, 23]: 94.9 µM | IC50 [2, 24]: 107 µM | IC50 [2, 25]: 8.95 µM | Viability of organoids (CTG assay) [2]: significantly decreased the viability of organoids | Response of breast cancer PDOs to treatment [2]: sensitive | Neurite outgrowth sensitivity, donor comparison [7]: Ovarian cancer patient’s neurons were found more sensitive to paclitaxel followed by breast cancer patient and healthy donor | IC50 [4, 26]: 22.7 µM | IC50 [4, 27]: 1240 µM | IC50 [4, 28]: 2120 µM | IC50 [4, 29]: 0.625 µM | IC50 [4, 30]: 76.7 µM | IC50 [4, 31]: 1010 µM | IC50 [4, 32]: 0.617 µM | IC50 [4, 33]: 89 µM | IC50 [4, 34]: 97.6 µM | IC50 [5, 35]: 16.7 µM | IC50 [5, 36]: 940 µM | IC50 [5, 37]: 2020 µM | IC50 [5, 38]: 20 µM | IC50 [5, 39]: 96 µM | IC50 [5, 40]: 945 µM | IC50 [5, 41]: 0.588 µM | IC50 [5, 42]: 9.74 µM | IC50 [5, 43]: 97.6 µM | Viability of organoids (CTG assay) [5]: significantly decreased the viability of organoids
